Target: T1, 5-HT2CR (Homo sapiens, UniProt P28335)
T1 construct: expressed in transfected cells
T1 sequence (P28335 33-458): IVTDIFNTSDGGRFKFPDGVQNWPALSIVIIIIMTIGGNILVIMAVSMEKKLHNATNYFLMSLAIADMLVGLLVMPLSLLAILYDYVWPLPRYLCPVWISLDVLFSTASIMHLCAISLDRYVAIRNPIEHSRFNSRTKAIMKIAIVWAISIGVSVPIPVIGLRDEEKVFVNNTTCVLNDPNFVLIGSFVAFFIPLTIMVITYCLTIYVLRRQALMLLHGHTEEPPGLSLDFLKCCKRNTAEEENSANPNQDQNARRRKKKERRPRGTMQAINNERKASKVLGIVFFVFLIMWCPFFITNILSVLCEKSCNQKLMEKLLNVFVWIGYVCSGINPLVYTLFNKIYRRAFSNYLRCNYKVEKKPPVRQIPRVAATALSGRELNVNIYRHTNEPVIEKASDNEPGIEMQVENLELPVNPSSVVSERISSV
Experiment: 5-HT-evoked Cai2+ release in vitro
Assay type: cell-based
Settings: highest concentration tested in vitro (10 μM)
Text: General Method for In Vitro Pharmacological Assessment of Compounds of the Invention. The Chinese hamster ovary (CHO) cell lines stably transfected with human unedited (INI) h5-HT2CR (h5-HT2CR—CHO cells) or the human h5-HT2AR (h5-HT2AR—CHO cells) were a generous gift of K. Berg and W. Clarke (University of Texas Health Science Center, San Antonio, TX) (Berg et al., Molecular Pharmacology, 46:477-484, 1994; Ding et al., ACS Chemical Neuroscience, 3:538-545, 2012). […] Changes in Cai^2+ levels were determined using the calcium sensitive dye Calcium 4 or Calcium 6 (FLIPR No-wash kit, Molecular Devices, Sunnyvale, CA). […] The fluorescence readings were then adopted to evaluate the allosteric modulation of 5-HT-induced Cai^2+ release. FlexStation 3 or FLIPR^TETRA was used to measure fluorescence. For FlexStation 3, a 17 s baseline was established before the compound was added, and fluorescence was recorded every 1.7 s thereafter for 240 s. The maximum peak height of each well was determined by SoftMax software (Pro 5.4.5). For FLIPR^TETRA, a 10 s baseline was established before adding the compound, and then record the fluorescence every 1 s for 120 s after the compound or 360 s after 5-HT. The maximum peak height of each well was determined by ScreenWorks 4.0 software. After the final reading, the cells were fixed in 2% paraformaldehyde (Sigma) overnight. […]

Row | agonist-like properties | Compound
1 | agonist-like properties observed | CCCCCCCCCCC[C@@H]1CCN[C@H](C(=O)N[C@@H]([C@H]2O[C@H](SC)[C@H](O)[C@@H](O)[C@H]2O)[C@H](C)Cl)C1.Cl [PNU-69176E]

Same assay, conditions: profile of a 5-HT2CR PAM

Row | 5-HT-evoked Cai2+ release | Compound
2 | potentiated | CCCCCCCCCCC[C@@H]1CCN[C@H](C(=O)N[C@@H]([C@H]2O[C@H](SC)[C@H](O)[C@@H](O)[C@H]2O)[C@H](C)Cl)C1.Cl [PNU-69176E]

Test system: not listed separately
Experiment: Solubility of representative compounds (Table 1)
Assay type: physicochemical
Settings: solvents listed

Row | Compound | Solubility
3 | N-(2-(1,1-dioxidothiomorpholino)ethyl)-4-phenethylpiperidine-2-carboxamide [AB0132] | EtOH, DMSO
4 | N-((2R,3R)-1,3-dihydroxybutan-2-yl)-4-phenethylpiperidine-2-carboxamide [AB0126] | EtOH, DMSO
5 | 4-phenethyl-N-(2-(piperazin-1-yl)ethyl)piperidine-2-carboxamide [AB0131] | EtOH, DMSO
6 | N-((2S,3S)-1,3-dihydroxybutan-2-yl)-4-phenethylpiperidine-2-carboxamide [AB0125] | EtOH, DMSO
7 | N-((1S,2S)-1,3-dihydroxy-1-(4-(methylthio)phenyl)propan-2-yl)-4-phenethylpiperidine-2-carboxamide [AB0135] | EtOH, DMSO
8 | N-(3-morpholinopropyl)-4-phenethylpiperidine-2-carboxamide [AB0145] | EtOH, DMSO
9 | N-(azetidin-3-yl)-4-phenethylpiperidine-2-carboxamide [AB0121] | EtOH, DMSO
10 | N,N-bis(2-hydroxyethyl)-4-phenethylpiperidine-2-carboxamide [AB0128] | EtOH, DMSO
11 | N-(2-(2-hydroxyethoxy)ethyl)-4-phenethylpiperidine-2-carboxamide [AB0136] | EtOH, DMSO
12 | N-(2-(4-methylpiperazin-1-yl)ethyl)-4-phenethylpiperidine-2-carboxamide [AB0146] | EtOH, DMSO
13 | N-(2-hydroxyethyl)-N-methyl-4-phenethylpiperidine-2-carboxamide [AB0127] | EtOH, DMSO
14 | N-(2-hydroxyethyl)-4-phenethylpiperidine-2-carboxamide [AB0123] | EtOH, DMSO
15 | N-(2-methoxyethyl)-4-phenethylpiperidine-2-carboxamide [AB0122] | EtOH, DMSO
16 | N-(2-(dimethylamino)ethyl)-4-phenethylpiperidine-2-carboxamide [AB0124] | EtOH, DMSO

— patent US20240360100A1, “HETEROCYCLIC COMPOUNDS AS SEROTONIN (5-HT) 5-HT2A AND 5-HT2C RECEPTOR POSITIVE ALLOSTERIC MODULATORS” (The Board of Regents of The University of Texas System, priority 2021, published 2024)
